In one assay the test system is HepG2. Briefly: cells. The settings on record: Homo sapiens, HepG2, 24 h.
Assay [1] is described as follows: cells. Particulars: Homo sapiens, L02, 24 h.
Description: Antiproliferative activity against human LO2 cells after 24 hrs by MTT assay
A further assay relates to A549. Briefly: cells. Particulars: Homo sapiens, A549, 24 h.
Assay [2] can be described thus: cells. The settings on record: Homo sapiens, HEK-293T, 24 h.
Description: Antiproliferative activity against human 293T cells after 24 hrs by MTT assay
Assay [3] concerns the target Prostaglandin G/H synthase 1 (Homo sapiens, UniProt P23219). Briefly: Inhibition of human COX1 using arachidonic acid assessed as production of PGF2alpha after 5 mins by ELISA.
Assay [4] can be described thus: cells. Particulars: Mus musculus, B16-F10, 24 h.
Description: Antiproliferative activity against mouse B16F10 cells after 24 hrs by MTT assay
For another assay, the system named is HeLa. Briefly: cells. The settings on record: Homo sapiens, 24 h.

Chain of Prostaglandin G/H synthase 1 (P23219 whole entry): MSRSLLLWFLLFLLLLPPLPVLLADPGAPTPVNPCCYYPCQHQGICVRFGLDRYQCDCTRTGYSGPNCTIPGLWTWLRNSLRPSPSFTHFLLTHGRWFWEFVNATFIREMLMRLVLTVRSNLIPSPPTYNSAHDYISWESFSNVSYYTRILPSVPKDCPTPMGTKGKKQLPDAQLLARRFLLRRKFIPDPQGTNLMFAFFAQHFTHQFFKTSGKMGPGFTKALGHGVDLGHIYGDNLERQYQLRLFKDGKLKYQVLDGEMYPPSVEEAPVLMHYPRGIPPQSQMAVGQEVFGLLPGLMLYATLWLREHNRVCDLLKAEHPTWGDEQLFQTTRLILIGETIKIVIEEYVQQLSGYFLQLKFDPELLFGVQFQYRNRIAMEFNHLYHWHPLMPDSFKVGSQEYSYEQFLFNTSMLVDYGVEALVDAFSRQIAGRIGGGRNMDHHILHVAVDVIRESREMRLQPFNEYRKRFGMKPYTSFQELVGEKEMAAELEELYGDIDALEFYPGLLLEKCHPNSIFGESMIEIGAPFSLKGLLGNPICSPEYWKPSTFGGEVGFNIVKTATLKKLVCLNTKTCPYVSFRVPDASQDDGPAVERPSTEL
Description for A549: Antiproliferative activity against human A549 cells after 24 hrs by MTT assay
Description for HeLa: Antiproliferative activity against human HeLa cells after 24 hrs by MTT assay
Description for HepG2: Antiproliferative activity against human HepG2 cells after 24 hrs by MTT assay

Regarding `COc1cccc(-c2cc(C(=O)N/N=C/c3c(Cl)c4ccccc4oc3=O)nn2-c2ccc(S(N)(=O)=O)cc2)c1`, the IC50 in the assay with HepG2 is 15.7 µM; in “cells [1]”, 105 µM; with A549, 22.4 µM; in “cells [2]”, 107 µM; in assay [3], above 100 µM; in the assay “cells [4]”, 9.58 µM. 7.58 µM corresponded to half-maximal inhibition in the assay on HeLa (IC50).
On to `COc1cc(-c2cc(C(=O)N/N=C/c3c(Cl)c4ccccc4oc3=O)nn2-c2ccc(S(N)(=O)=O)cc2)cc(OC)c1OC`, for which the IC50 in the assay with HepG2 came to 20 µM; in “cells [1]” it was 116 µM; in the assay with A549, 26.1 µM; in the assay “cells [2]” it was 101 µM; in assay [3] it was 49.8 µM; in “cells [4]”, 26.2 µM. The same compound yielded an IC50 in the assay with HeLa of 16.2 µM.
For `NS(=O)(=O)c1ccc(-n2nc(C(=O)N/N=C/c3c(Cl)c4ccccc4oc3=O)cc2-c2cccc(Cl)c2)cc1`, the IC50 is 6.75 µM with HepG2; 168 µM in “cells [1]”; 14.7 µM in the assay with A549; 152 µM in the assay “cells [2]”; above 100 µM in assay [3]; 15.6 µM in “cells [4]”. The compound also returned an IC50 in the assay with HeLa of 5.46 µM.
As to `COc1ccc(-c2cc(C(=O)N/N=C/c3c(Cl)c4ccccc4oc3=O)nn2-c2ccc(S(N)(=O)=O)cc2)cc1`, the concentration for half-maximal inhibition (IC50) with HepG2 is 14.7 µM; in the assay “cells [1]”, above 300 µM; in the assay on A549 it was 31.5 µM; in the assay “cells [2]” it was above 300 µM; in assay [3], 84.3 µM; in “cells [4]” it was 7.31 µM. In addition, the half-inhibitory concentration (IC50) in the assay on HeLa was 12 µM.
`NS(=O)(=O)c1ccc(-n2nc(C(=O)N/N=C/c3c(Cl)c4ccccc4oc3=O)cc2-c2ccc(O)cc2)cc1`: the IC50 in the assay with HepG2 was 18.2 µM; in the assay “cells [1]”, 163 µM; in the assay with A549, 26.4 µM; in the assay “cells [2]”, 139 µM; in assay [3], above 100 µM; in “cells [4]” it was 21.3 µM. For the same compound, the IC50 with HeLa was found to be 12.4 µM.
In the case of `Cc1cccc(-c2cc(C(=O)N/N=C/c3c(Cl)c4ccccc4oc3=O)nn2-c2ccc(S(N)(=O)=O)cc2)c1`, the IC50 in the assay on HepG2 is 5.98 µM; in the assay “cells [1]” it was 199 µM; in the assay on A549, 20.3 µM; in “cells [2]” it was above 300 µM; in assay [3] it was 48.2 µM; in “cells [4]”, 5.28 µM. In addition, in the assay on HeLa, the IC50 was found to be 11.1 µM.
For `NS(=O)(=O)c1ccc(-n2nc(C(=O)N/N=C/c3c(Cl)c4ccccc4oc3=O)cc2-c2ccccc2Cl)cc1`, the IC50 with HepG2 turned out to be 6.1 µM; in “cells [1]” it was 214 µM; in the assay with A549, 12.3 µM; in “cells [2]”, 254 µM; in assay [3] it was 86.2 µM; in the assay “cells [4]”, 9.12 µM. In the assay on HeLa, this compound displayed a half-maximal inhibitory concentration (IC50) of 5.09 µM.
`NS(=O)(=O)c1ccc(-n2nc(C(=O)N/N=C/c3c(Cl)c4ccccc4oc3=O)cc2-c2ccc(Cl)c(Cl)c2)cc1`: the IC50 with HepG2 is 5.12 µM; in “cells [1]”, above 300 µM; in the assay on A549, 23.5 µM; in the assay “cells [2]”, 153 µM; in assay [3], 96.6 µM; in “cells [4]”, 7.45 µM. For the same compound, the IC50 in the assay with HeLa was 4.91 µM.
As to `Cc1ccc(-c2cc(C(=O)N/N=C/c3c(Cl)c4ccccc4oc3=O)nn2-c2ccc(S(N)(=O)=O)cc2)cc1C`, the IC50 in the assay on HepG2 was 4.41 µM; in “cells [1]”, above 300 µM; with A549, 24.2 µM; in the assay “cells [2]”, 233 µM; in assay [3], above 100 µM; in “cells [4]”, 6.93 µM. For the same compound, the 50% inhibitory concentration (IC50) with HeLa worked out at 6.92 µM.
In the case of `Cc1ccc(-c2cc(C(=O)N/N=C/c3c(Cl)c4ccccc4oc3=O)nn2-c2ccc(S(N)(=O)=O)cc2)c(C)c1`, the IC50 with HepG2 was determined as 6.7 µM; in “cells [1]” it was 206 µM; with A549, 28.5 µM; in the assay “cells [2]”, 175 µM; in assay [3] it was 39.5 µM; in the assay “cells [4]” it was 4.68 µM. The compound further displayed an IC50 in the assay with HeLa of 7.95 µM.
In the case of `CCOc1ccc(-c2cc(C(=O)N/N=C/c3c(Cl)c4ccccc4oc3=O)nn2-c2ccc(S(N)(=O)=O)cc2)cc1`, the IC50 in assay [3] is 78.5 µM.

What is called IC50 is the concentration that gives 50% inhibition.

Source of the values: ChEMBL document CHEMBL3822383, “Coumarin sulfonamides derivatives as potent and selective COX-2 inhibitors with efficacy in suppressing cancer proliferation and metastasis” (Bioorg Med Chem Lett, 2016).
